Data on 14 molecules can be found in patent US9637483B2, “Heterocyclic compound” (TAKEDA PHARMACEUTICAL COMPANY LIMITED, priority 2013, dated 2017).

What all share (format): biochemical
Test [1] has as its target T1, JAK3 (Homo sapiens, UniProt P52333).
T1 construct: purchased Invitrogen
T1 sequence (P52333 1-1124): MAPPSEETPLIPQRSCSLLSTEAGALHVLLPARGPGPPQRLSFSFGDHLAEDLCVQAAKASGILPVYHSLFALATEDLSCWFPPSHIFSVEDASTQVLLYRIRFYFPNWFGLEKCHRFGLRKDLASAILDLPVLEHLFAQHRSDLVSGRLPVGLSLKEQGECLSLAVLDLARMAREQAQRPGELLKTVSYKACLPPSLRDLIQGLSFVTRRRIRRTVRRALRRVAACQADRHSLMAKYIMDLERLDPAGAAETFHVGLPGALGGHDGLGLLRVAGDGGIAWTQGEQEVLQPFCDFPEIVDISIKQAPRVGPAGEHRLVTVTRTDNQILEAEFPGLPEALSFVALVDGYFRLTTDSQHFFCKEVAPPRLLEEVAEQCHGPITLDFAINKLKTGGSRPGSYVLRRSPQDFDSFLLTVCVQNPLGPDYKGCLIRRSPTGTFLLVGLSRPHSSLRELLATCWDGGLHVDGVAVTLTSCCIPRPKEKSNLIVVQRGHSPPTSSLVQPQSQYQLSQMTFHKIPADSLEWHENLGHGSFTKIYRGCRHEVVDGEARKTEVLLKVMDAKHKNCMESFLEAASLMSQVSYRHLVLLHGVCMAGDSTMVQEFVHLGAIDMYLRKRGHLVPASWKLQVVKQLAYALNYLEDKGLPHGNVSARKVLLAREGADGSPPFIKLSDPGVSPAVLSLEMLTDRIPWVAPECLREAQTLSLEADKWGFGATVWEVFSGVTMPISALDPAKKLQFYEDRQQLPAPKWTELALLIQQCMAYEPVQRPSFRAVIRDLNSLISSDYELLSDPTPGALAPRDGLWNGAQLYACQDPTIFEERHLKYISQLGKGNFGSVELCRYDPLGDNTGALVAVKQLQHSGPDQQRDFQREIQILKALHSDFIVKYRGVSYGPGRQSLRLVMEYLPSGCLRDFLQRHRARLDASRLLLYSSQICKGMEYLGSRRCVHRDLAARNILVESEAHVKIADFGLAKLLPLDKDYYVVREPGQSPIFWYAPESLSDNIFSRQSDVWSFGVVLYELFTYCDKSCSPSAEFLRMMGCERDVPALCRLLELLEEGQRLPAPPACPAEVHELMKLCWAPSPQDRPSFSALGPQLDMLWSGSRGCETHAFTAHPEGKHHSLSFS
As to the kind of experiment: JAK3 enzyme inhibition test (LANCE method). To be noted: 1 μM test compound; read-out: JAK3 enzyme inhibitory activity (%, 1 μM). In short, it runs like this:
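Recombinant JAK3 (12 ng/mL solution) with ULight-JAK1 peptide (300 nM solution) and ATP (15 μM solution) in HEPES pH 7.5 buffer, 1 h at room temperature. EDTA stop with Eu-anti-phosphotyrosine antibody; TR-FRET at 665 nm. Inhibition relative to enzyme-free wells as 100%.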

The target in test [2] is T2, TYK2 (Homo sapiens, UniProt P29597).
T2 construct: purchased Invitrogen
The experiment in a line: TYK2 enzyme inhibition test (LANCE method). The settings on record: 1 μM test compound; read-out: TYK2 enzyme inhibitory activity (%, 1 μM). In short, it runs like this:
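Recombinant TYK2 (375 ng/mL working solution) with ULight-JAK1 peptide (300 nM working solution) and ATP (30 μM working solution) in HEPES pH 7.5 buffer with MgCl2, EGTA, DTT, Tween20, BSA, reacted 1 h at RT. EDTA-stopped, Eu-anti-phosphotyrosine TR-FRET read at 665 nm; inhibition relative to enzyme-free wells as 100%.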

In test [3] the target is T3, JAK1 (Homo sapiens, UniProt P23458).
T3 construct: purchased Invitrogen
As to the kind of experiment: JAK1 enzyme inhibition test (LANCE method). To be noted: 1 μM test compound; read-out: JAK1 enzyme inhibitory activity (%, 1 μM). The essentials: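 TR-FRET (LANCE) with ULight-JAK1 peptide (300 nM working solution) and ATP (150 μM working solution) in HEPES pH 7.5, MgCl2, EGTA, DTT buffer; 1 h at room temperature. EDTA stop plus Eu-anti-phosphotyrosine antibody, 665 nm read after 1 h. Inhibition relative to enzyme-free wells as 100%.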

The target in test [4] is T4, JAK2 (Homo sapiens, UniProt O60674).
T4 construct: purchased Invitrogen
As to the kind of experiment: JAK2 enzyme inhibition test (LANCE method). To be noted: 1 μM test compound; read-out: JAK2 enzyme inhibitory activity (%, 1 μM). The essentials: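 Recombinant JAK2 (6 ng/mL solution) phosphorylated ULight-JAK1 peptide (300 nM solution) with ATP (45 μM solution) in pH 7.5 HEPES/MgCl2/DTT buffer for 1 hr at room temperature. After EDTA stop and europium anti-phosphotyrosine antibody for 1 hr, TR-FRET read at 665 nm; inhibition relative to enzyme-free wells as 100%.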

Each structure is given as a SMILES string.

T2 sequence (P29597 whole entry): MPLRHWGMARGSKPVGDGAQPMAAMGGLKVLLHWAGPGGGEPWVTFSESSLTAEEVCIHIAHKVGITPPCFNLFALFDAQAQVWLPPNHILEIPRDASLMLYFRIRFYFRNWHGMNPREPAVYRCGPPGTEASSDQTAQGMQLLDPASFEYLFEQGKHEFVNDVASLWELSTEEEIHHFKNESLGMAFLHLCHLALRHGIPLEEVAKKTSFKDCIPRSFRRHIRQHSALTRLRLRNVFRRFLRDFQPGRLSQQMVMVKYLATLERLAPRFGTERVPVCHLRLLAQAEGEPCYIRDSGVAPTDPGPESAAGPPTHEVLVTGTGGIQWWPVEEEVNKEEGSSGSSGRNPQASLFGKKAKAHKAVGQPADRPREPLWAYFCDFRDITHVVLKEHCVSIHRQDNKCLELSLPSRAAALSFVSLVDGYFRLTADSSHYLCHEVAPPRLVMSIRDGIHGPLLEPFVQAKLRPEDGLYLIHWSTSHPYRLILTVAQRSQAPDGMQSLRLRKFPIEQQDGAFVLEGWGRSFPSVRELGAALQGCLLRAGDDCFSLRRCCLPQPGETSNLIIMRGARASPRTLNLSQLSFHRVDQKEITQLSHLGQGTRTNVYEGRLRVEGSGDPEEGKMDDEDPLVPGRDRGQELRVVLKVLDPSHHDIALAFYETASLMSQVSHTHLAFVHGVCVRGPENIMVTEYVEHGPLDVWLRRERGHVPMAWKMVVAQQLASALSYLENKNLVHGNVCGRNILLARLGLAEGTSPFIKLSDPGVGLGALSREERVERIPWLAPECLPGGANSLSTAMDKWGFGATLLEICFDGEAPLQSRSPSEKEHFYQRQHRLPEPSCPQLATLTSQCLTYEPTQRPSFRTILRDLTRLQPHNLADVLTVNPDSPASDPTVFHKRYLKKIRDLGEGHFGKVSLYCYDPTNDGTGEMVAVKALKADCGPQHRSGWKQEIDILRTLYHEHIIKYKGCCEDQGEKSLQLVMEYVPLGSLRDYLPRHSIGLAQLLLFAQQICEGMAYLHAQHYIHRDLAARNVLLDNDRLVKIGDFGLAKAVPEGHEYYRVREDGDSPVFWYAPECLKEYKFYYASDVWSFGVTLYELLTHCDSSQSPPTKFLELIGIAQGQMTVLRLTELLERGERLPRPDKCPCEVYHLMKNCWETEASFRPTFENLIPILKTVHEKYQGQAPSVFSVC
T3 sequence (P23458 whole entry): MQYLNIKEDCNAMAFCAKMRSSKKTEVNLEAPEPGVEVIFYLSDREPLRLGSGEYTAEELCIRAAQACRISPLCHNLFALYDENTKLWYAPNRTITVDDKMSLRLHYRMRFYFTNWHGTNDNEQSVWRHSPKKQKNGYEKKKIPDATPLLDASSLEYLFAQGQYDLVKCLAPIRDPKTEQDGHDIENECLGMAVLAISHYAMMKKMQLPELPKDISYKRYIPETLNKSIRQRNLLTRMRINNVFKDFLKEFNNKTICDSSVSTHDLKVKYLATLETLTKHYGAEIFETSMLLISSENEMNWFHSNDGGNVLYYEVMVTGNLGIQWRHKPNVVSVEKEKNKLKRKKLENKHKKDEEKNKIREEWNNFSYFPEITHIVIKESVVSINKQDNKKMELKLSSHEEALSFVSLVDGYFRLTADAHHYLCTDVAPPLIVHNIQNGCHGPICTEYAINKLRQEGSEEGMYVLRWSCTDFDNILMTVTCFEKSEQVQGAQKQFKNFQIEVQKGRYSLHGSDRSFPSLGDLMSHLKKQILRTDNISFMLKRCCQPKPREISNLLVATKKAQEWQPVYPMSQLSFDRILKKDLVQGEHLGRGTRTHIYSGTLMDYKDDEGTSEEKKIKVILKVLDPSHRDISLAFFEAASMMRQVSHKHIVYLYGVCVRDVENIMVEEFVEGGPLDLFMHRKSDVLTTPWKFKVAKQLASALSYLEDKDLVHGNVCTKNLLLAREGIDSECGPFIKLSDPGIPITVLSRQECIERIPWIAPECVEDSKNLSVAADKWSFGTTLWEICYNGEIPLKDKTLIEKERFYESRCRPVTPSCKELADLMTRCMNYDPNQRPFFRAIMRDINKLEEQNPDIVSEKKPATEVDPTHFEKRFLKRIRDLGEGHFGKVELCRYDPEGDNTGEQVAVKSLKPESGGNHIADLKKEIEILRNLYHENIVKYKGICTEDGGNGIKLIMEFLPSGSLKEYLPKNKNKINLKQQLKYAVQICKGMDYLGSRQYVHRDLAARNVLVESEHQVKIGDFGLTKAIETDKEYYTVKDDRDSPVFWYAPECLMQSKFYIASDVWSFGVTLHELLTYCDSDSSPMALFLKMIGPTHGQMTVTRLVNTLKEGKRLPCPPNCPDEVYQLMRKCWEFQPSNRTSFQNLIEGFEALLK
T4 sequence (O60674 whole entry): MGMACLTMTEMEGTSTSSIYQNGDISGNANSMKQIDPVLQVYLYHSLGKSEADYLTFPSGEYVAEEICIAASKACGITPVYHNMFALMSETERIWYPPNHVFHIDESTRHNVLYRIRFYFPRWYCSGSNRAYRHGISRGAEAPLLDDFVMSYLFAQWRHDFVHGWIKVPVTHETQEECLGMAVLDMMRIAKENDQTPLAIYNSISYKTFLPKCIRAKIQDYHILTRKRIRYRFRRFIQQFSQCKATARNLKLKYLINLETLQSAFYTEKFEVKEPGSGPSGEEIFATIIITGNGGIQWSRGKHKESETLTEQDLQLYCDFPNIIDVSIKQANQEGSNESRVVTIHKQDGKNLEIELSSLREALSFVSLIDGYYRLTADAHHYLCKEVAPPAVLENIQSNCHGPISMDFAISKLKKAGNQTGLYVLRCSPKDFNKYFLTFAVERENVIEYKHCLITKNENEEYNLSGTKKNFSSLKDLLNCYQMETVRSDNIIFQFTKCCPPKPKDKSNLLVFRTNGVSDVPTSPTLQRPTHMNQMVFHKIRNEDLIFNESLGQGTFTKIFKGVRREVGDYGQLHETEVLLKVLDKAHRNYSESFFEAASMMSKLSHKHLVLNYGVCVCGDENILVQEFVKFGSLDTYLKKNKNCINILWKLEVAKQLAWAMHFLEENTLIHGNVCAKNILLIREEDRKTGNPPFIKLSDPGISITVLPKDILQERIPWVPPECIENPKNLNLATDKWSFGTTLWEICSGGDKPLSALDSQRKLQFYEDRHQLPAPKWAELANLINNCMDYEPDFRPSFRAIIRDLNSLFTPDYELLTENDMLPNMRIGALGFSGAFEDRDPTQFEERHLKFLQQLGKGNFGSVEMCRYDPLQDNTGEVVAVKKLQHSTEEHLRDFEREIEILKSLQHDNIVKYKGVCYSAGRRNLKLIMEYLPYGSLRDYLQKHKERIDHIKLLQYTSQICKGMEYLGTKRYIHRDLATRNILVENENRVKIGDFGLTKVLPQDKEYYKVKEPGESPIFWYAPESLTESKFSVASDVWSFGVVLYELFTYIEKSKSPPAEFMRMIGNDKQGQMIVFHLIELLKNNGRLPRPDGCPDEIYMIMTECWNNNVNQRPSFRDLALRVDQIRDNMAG

Turning to `CC(C)[C@H](C)n1cc(-c2cc(N3CCC(F)(F)CC3)n(C)n2)c2[nH]nc(N)c2c1=O` [Example 16, 3-amino-7-(5-(4,4-difluoropiperidin-1-yl)-1-methyl-1H-pyrazol-3-yl)-5-((2S)-3-methylbutan-2-yl)-1,5-dihydro-4H-pyrazolo[4,3-c]pyridin-4-one], the inhibition at 1 µM in test [1] is 100%; in test [2] it was 100%; in test [3] it was 97%; in test [4], 99%.

Consider `CN1CCCN(c2cc(-c3cn(C(C4CC4)C4CC4)c(=O)c4c(N)n[nH]c34)nn2C)CC1` [Example 150, 3-amino-5-(dicyclopropylmethyl)-7-(1-methyl-5-(4-methyl-1,4-diazepan-1-yl)-1H-pyrazol-3-yl)-1,5-dihydro-4H-pyrazolo[4,3-c]pyridin-4-one], for which the inhibition at 1 µM in test [1] was found to be 101%; in test [2] it was 102%; in test [3], 98%; in test [4] it was 100%.

On to `Cn1nc(-c2cn(C(C3CC3)C3CC3)c(=O)c3c(N)n[nH]c23)cc1N1CCN2CCC[C@@H]2C1` [Example 163, 3-amino-5-(dicyclopropylmethyl)-7-(5-((8aR)-hexahydropyrrolo[1,2-a]pyrazin-2(1H)-yl)-1-methyl-1H-pyrazol-3-yl)-1,5-dihydro-4H-pyrazolo[4,3-c]pyridin-4-one], for which the inhibition at 1 µM amounted to 100% in test [1], 101% in test [2], 100% in test [3] and 100% in test [4].

`C[C@H](C1CC1)n1cc(-c2cc(N3CCOCC3)n(C)n2)c2[nH]nc(N)c2c1=O` [Example 6, 3-amino-5-((1R)-1-cyclopropylethyl)-7-(1-methyl-5-(morpholin-4-yl)-1H-pyrazol-3-yl)-1,5-dihydro-4H-pyrazolo[4,3-c]pyridin-4-one]: the inhibition at 1 µM in test [1] was determined as 98%; in test [2] it was 100%; in test [3] it was 96%; in test [4], 93%.

With `C[C@@H](C1CC1)n1cc(-c2cc(N3CCS(=O)(=O)C(C)(C)C3)n(C)n2)c2[nH]nc(N)c2c1=O` [Example 95, 3-amino-5-((1S)-1-cyclopropylethyl)-7-(5-(2,2-dimethyl-1,1-dioxidothiomorpholin-4-yl)-1-methyl-1H-pyrazol-3-yl)-1,5-dihydro-4H-pyrazolo[4,3-c]pyridin-4-one], the inhibition at 1 µM in test [1] is 100%; in test [2], 99%; in test [3] it was 100%; in test [4] it was 100%.

For `Cn1nc(-c2cn(C(C3CC3)C3CC3)c(=O)c3c(N)n[nH]c23)cc1N1CCS(=O)(=O)C(C)(C)C1` [Example 88, 3-amino-5-(dicyclopropylmethyl)-7-(5-(2,2-dimethyl-1,1-dioxidothiomorpholin-4-yl)-1-methyl-1H-pyrazol-3-yl)-1,5-dihydro-4H-pyrazolo[4,3-c]pyridin-4-one], the inhibition at 1 µM amounted to 99% in test [1], 99% in test [2], 99% in test [3] and 100% in test [4].

With `CC(C)[C@H](C)n1cc(-c2cc(C3(O)CCC3)n(C)n2)c2[nH]nc(N)c2c1=O` [Example 38, 3-amino-7-(5-(1-hydroxycyclobutyl)-1-methyl-1H-pyrazol-3-yl)-5-((2S)-3-methylbutan-2-yl)-1,5-dihydro-4H-pyrazolo[4,3-c]pyridin-4-one], the inhibition at 1 µM in test [1] is 100%; in test [2] it was 100%; in test [3], 99%; in test [4] it was 99%.

`CC(C)[C@H](C)n1cc(-c2cc(C(F)(F)F)n(C)n2)c2[nH]nc(N)c2c1=O` [Example 42, 3-amino-5-((2S)-3-methylbutan-2-yl)-7-(1-methyl-5-(trifluoromethyl)-1H-pyrazol-3-yl)-1,5-dihydro-4H-pyrazolo[4,3-c]pyridin-4-one]: the inhibition at 1 µM stood at 99% in test [1], 98% in test [2], 96% in test [3] and 96% in test [4].

Consider `CC(C)[C@H](C)n1cc(-c2cc(CN3CCCC3)n(C)n2)c2[nH]nc(N)c2c1=O` [Example 44, 3-amino-5-((2S)-3-methylbutan-2-yl)-7-(1-methyl-5-(pyrrolidin-1-ylmethyl)-1H-pyrazol-3-yl)-1,5-dihydro-4H-pyrazolo[4,3-c]pyridin-4-one], for which the inhibition at 1 µM in test [1] amounted to 99%; in test [2], 101%; in test [3], 90%; in test [4], 96%.

On to `CC(C)C(C(N)=O)n1cc(-c2cc(N3CCOCC3)n(C)n2)c2[nH]nc(N)c2c1=O` (centres unmarked) [Example 85, 2-(3-amino-7-(1-methyl-5-(morpholin-4-yl)-1H-pyrazol-3-yl)-4-oxo-1,4-dihydro-5H-pyrazolo[4,3-c]pyridin-5-yl)-3-methylbutanamide], for which the inhibition at 1 µM in test [1] came out at 89%; in test [2] it was 89%; in test [3], 68%; in test [4] it was 86%.

For `Cn1nc(-c2cn(C(C3CC3)C3CC3)c(=O)c3c(N)n[nH]c23)cc1N1CC[C@@H](O)C1` [Example 169, 3-amino-5-(dicyclopropylmethyl)-7-(5-((3R)-3-hydroxypyrrolidin-1-yl)-1-methyl-1H-pyrazol-3-yl)-1,5-dihydro-4H-pyrazolo[4,3-c]pyridin-4-one], the inhibition at 1 µM was determined as 99% in test [1], 98% in test [2], 98% in test [3] and 98% in test [4].

Take `CC(C)[C@H](C)n1cc(-c2cc(N3CC[C@H](O)C3)n(C)n2)c2[nH]nc(N)c2c1=O` [Example 23, 3-amino-7-(5-((3S)-3-hydroxypyrrolidin-1-yl)-1-methyl-1H-pyrazol-3-yl)-5-((2S)-3-methylbutan-2-yl)-1,5-dihydro-4H-pyrazolo[4,3-c]pyridin-4-one]: the inhibition at 1 µM in test [1] is 99%; in test [2], 99%; in test [3] it was 97%; in test [4] it was 98%.

On to `COC[C@@H]1CCCN1c1cc(-c2cn([C@@H](C)C(C)C)c(=O)c3c(N)n[nH]c23)nn1C` [Example 26, 3-amino-7-(5-((2S)-2-(methoxymethyl)pyrrolidin-1-yl)-1-methyl-1H-pyrazol-3-yl)-5-((2S)-3-methylbutan-2-yl)-1,5-dihydro-4H-pyrazolo[4,3-c]pyridin-4-one], for which the inhibition at 1 µM was 98% in test [1], 98% in test [2], 88% in test [3] and 96% in test [4].

With `Cn1nc(-c2cn(C(C3CC3)C3CC3)c(=O)c3c(N)n[nH]c23)cc1C1CCCCC1` [Example 148, 3-amino-7-(5-cyclohexyl-1-methyl-1H-pyrazol-3-yl)-5-(dicyclopropylmethyl)-1,5-dihydro-4H-pyrazolo[4,3-c]pyridin-4-one], the inhibition at 1 µM in test [1] amounted to 104%; in test [2] it was 110%; in test [3] it was 101%; in test [4], 101%.
